Measurements reported in patent publication US12258335B1, “Matrix metalloproteinase (MMP) inhibitors and methods of use thereof” (Foresee Pharmaceuticals USA, Inc., priority 2018, dated 2025).

How the values were obtained:
[1] = system: bleomycin (BLM) induced unilateral lung fibrosis model in Sprague Dawley (SD) rats; test: Bleomycin-induced SD rat unilateral lung fibrosis model for IPF; assay type: in vivo
Protocol: The purpose of this study was to evaluate the therapeutic effect of FC-4 on bleomycin (BLM) induced unilateral lung fibrosis model in Sprague Dawley (SD) rats. Male SD rats (n=50) were randomly divided into the following groups: Sham group (n=10), Model group (n=10), FC-4 administered at 10 mg/kg/day group (n=10), FC-4 administered at 30 mg/kg/day group (n=10), and FC-4 administered at 100 mg/kg/day group (n=10). All test drugs were delivered orally starting from day 8 of modeling for 14 days. Saline solution was taken for sham and model groups once a day, and FC-4 twice a day for drug treatment groups. Rats were anesthetized and the trachea was exposed. Saline was administrated via direct intra-trachea injection in the sham group, and the other groups' animals received a BLM injection at a dose of 3 mg/kg in volume of 1.0 ml/kg. All animals were processed using a non invasive lung function test with EMMS Whole Body Plethysmography system at pre-modeling, and at days 3, 7, 11, 14, 18 and 21 of modeling. One day after the last drug delivery, the left lung of all animals was perfused with 10% formalin, and processed for pathology analysis.
Animals: Species and quality level: SD rats, SPF grade. Gender and number: male, 93. Purchasing body weight range: 260-280 g. […]

[2] = target: T1, recombinant human MMP-12 catalytic domain (Homo sapiens, UniProt P39900); test: MMP-12 inhibitory assay (fluorogenic MMP substrate cleavage); assay type: biochemical; settings: readout at 30 minutes
T1 construct: recombinant human MMP-12 catalytic domain; purchased Enzo BM1L-SE138
T1 sequence (P39900 106-263 limits assumed): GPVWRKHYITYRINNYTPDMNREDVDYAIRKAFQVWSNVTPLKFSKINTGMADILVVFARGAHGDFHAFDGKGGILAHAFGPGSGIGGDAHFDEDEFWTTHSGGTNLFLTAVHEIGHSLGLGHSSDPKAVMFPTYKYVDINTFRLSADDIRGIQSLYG
Protocol: The inhibitory effect of compounds on the rate of cleaving fluorogenic MMP substrate (Enzo, BML-P128) by recombinant human MMP-12 catalytic domain (Enzo, BM1L-SE138) was carried out by methods known in the art. Briefly, to each well of a 96-well black opaque plate, all the reagents were sequentially added by pipetting, and the final reaction contained 4 nM of recombinant human MMP-12 catalytic domain, 4 μM of fluorogenic MMP substrate, and various concentrations (0.15 nM to 10,000 nM) of tested compound dilutions in HEPES buffer (pH 7.5) containing 10 mM of CaCl2), 0.01% Brij® 35 (polyoxyethylene (23) lauryl ether), and 0.1 mg/ml of BSA.
The enzyme and compounds were pre-incubated on a shaker to mix in wells. After an hour of mixing, fluorogenic substrate was added to each well. Reaction without enzyme was used as a blank control in the plate. The plate was then fed into a plate reader to measure fluorescence intensity at Excitation/Emission wavelengths of 340 nm/440 nm every 10 mins for at least 1 hour at 37° C. The IC50 of each compound in MMP-12 inhibition was determined by using a readout obtained at time point 30 minutes.

| SMILES | IC50 [2] [µM] | Share of the Ashcraft score that was score 3 ([1]; all drug treatment groups) [%] | Physical and behavior abnormality ([1]; all tested rats during the experiment) |
| --- | --- | --- | --- |
| Cc1cc(COc2ccc(Sc3ccoc3C3NC(=O)NC3=O)cc2)ccn1 (stereo not drawn) [FC-4] | – | ~80 | no obviously physical and behavior abnormality change |
| Cc1cc(CCc2ccc(Sc3ccoc3C3NC(=O)NC3=O)cc2)ccn1 (stereo not drawn) [FC-30] | 0.01 to 0.1 | – | – |
| Cc1cc(NCc2ccc(Sc3ccoc3C3NC(=O)NC3=O)cc2)ccn1 (stereo not drawn) [FC-34] | 0.1 to 1 | – | – |

The next lines start with results.

| IC50 [2] [µM] | SMILES | Share of the Ashcraft score that was score 3 ([1]; all drug treatment groups) [%] | Physical and behavior abnormality ([1]; all tested rats during the experiment) |
| --- | --- | --- | --- |
| > 1 | Cc1cccc(COc2ccc(Sc3ccoc3C3NC(=O)NC3=O)cc2)[n+]1[O-] (stereo not drawn) [FC-5] | – | – |
| 0.01 to 0.1 | Cc1cc(CNc2ccc(Sc3ccoc3C3NC(=O)NC3=O)cc2)ccn1 (stereo not drawn) [FC-31] | – | – |
